Assays:
[1] = biological target: T1, recombinant human liver glycogen phosphorylase (Homo sapiens, UniProt P06737); test: Measuring liver glycogen phosphorylase activity (forward reaction system, NADPH absorbance at 340 nm); format: biochemical
T1 construct: made in house; host or cells: Sf9 insect cells (crude homogenate, diluted, used as the enzyme solution)
T1 sequence (P06737 1-847): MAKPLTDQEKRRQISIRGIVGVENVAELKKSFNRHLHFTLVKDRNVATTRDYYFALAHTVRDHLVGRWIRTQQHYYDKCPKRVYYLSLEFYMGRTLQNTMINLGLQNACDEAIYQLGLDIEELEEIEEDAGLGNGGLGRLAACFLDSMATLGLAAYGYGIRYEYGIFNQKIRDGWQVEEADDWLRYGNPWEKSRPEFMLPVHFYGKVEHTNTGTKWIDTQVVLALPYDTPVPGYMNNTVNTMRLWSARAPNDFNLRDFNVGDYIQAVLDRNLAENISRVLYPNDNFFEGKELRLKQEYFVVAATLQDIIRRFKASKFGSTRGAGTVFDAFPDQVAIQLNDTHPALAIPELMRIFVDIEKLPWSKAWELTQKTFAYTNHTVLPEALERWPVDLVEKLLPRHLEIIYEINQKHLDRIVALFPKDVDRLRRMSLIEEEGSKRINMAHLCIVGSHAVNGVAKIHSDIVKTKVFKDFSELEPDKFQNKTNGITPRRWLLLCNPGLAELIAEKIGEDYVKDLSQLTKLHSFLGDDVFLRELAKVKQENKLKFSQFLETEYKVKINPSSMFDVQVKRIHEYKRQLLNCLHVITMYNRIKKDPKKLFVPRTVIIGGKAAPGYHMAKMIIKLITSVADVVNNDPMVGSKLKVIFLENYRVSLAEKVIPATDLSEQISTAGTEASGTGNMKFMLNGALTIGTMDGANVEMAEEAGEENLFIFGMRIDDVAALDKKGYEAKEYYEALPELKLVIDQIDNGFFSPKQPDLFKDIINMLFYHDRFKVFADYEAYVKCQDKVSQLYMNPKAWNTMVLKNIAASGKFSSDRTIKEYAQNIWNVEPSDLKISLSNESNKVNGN
Method in brief: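 Sf9 homogenate expressing the enzyme, in pH 6.8 BES/EDTA, with glycogen and phosphate substrate plus glucose, coupled via phosphoglucomutase/G6PDH to NADPH formation. A340 change over 75 min at room temperature, blank-corrected; IC50 linearly interpolated between the two concentrations bracketing 50% inhibition versus 1% DMSO control.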

db/db mice = test: Measuring blood plasma glucose concentration in db/db mice (hypoglycemic effect); format: in vivo; set-up: key: ++: compounds exhibiting statistically significant hypoglycemic effect at a dose of 10 mg/kg or less; +: compounds exhibiting not significant but obvious hypoglycemic effect at a dose of 10 mg/kg; details: for vivo (hypoglycemic effect in db/db mice): db/db mice fasted 4 h, oral administration, plasma glucose 1 and 3 hours after administration, dose 10 mg/kg or less, Dunnett test vs solvent; for vivo (hypoglycemic effect): db/db mice, blood plasma glucose, dose of 10 mg/kg or less
Experimental: 2. Exemplary Test (2) Method for Measuring Blood Plasma Glucose Concentration
Using db/db mice representing an obesity type of diabetic model were used to examine the effect of compound (1) of the present invention on glucose concentrations in plasma. Plasma glucose concentrations of the db/db mice (9-18 weeks old) were measured, and the mice were divided into groups each of 5 or 8 mice such that there would be no difference in the average value of plasma glucose concentrations. After fasting for four hours, the example compound or the solvent (0.5% methylcellulose) was administered orally to the db/db mice, and plasma glucose concentrations were measured 1 and 3 hours after administration. The analysis of the hypoglycemic effect of the example compound was performed through a statistical test at every hour between the group receiving the solvent and the groups of example compound (Dunnett test).

[2] = enzyme inhibitory activity with respect to liver glycogen phosphorylase, class symbols
[3] = human liver glycogen phosphorylase, class symbol

Row | SMILES | IC50 [1, 2] [nM] | vivo (hypoglycemic effect in db/db mice) (db/db mice) | vivo (hypoglycemic effect in db/db mice) (db/db mice; 10 mg/kg) | IC50 [1, 3] [nM] | vivo (hypoglycemic effect) (db/db mice)
1 | COc1nc(C)ccc1CNC(=O)c1cc(NC(=O)c2cc(F)c(F)cc2Cl)[nH]n1 [Example 2-5, 5-(2-chloro-4,5-difluoro-benzoylamino)-1H-pyrazole-3-carboxylic acid (2-methoxy-6-methyl-pyridin-3-ylmethyl)-amide] | < 100 | ++ | – | – | –
2 | CCCCN(C(=O)c1cc(NC(=O)c2cc(F)c(F)cc2Cl)[nH]n1)C1CCOCC1 [Example 1-96] | < 100 | + | – | – | –
3 | COc1cccc(OC)c1CNC(=O)c1cc(NC(=O)c2cc(F)c(F)cc2Cl)[nH]n1 [Example 1-15] | < 100 | + | – | – | –
4 | O=C(NCc1ccc(Cl)cc1)c1cc(NC(=O)c2cc(F)c(F)cc2Cl)[nH]n1 [Example 1-71] | < 100 | + | – | – | –
5 | O=C(Nc1cc(C(=O)N(Cc2ccccc2)c2ccccc2)n[nH]1)c1cc(F)c(F)cc1Cl [Example 4-9] | < 100 | + | – | – | –
6 | Cc1ccc(CNC(=O)c2cc(NC(=O)c3cc(F)c(F)cc3Cl)[nH]n2)nc1 [Example 2-10] | < 100 | + | – | – | –
7 | Cc1nc(C)c(CNC(=O)c2cc(NC(=O)c3cc(F)c(F)cc3Cl)[nH]n2)s1.Cl [Example 5-33] | < 100 | + | – | – | –
8 | CN(C)c1ccc(CNC(=O)c2cc(NC(=O)c3cc(F)c(F)cc3Cl)[nH]n2)cc1 [Example 3-24] | < 100 | + | – | – | –
9 | CCOc1ccc(CNC(=O)c2cc(NC(=O)c3cc(F)c(F)cc3Cl)[nH]n2)cn1 [Example 1-37] | < 100 | + | – | – | –
10 | O=C(NCCN1CCOCC1)c1cc(CNC(=O)c2cc(NC(=O)c3cc(F)c(F)cc3Cl)[nH]n2)ccn1 [Example 5-13] | < 100 | + | – | – | –
11 | Cc1ncsc1CNC(=O)c1cc(NC(=O)c2cc(F)c(F)cc2Cl)[nH]n1.Cl [Example 5-32] | < 100 | + | – | – | –
12 | O=C(NCc1ccc(C(F)(F)F)nc1)c1cc(NC(=O)c2cc(F)c(F)cc2Cl)[nH]n1 [Example 3-40] | < 100 | ++ | – | – | –
13 | COc1ccnc(CNC(=O)c2cc(NC(=O)c3cc(F)c(F)cc3Cl)[nH]n2)c1 [Example 3-45] | < 100 | + | – | – | –
14 | COCCN(C(=O)c1cc(NC(=O)c2cc(F)c(F)cc2Cl)[nH]n1)C1CCCC1 [Example 1-98] | < 100 | + | – | – | –
15 | CN(C)c1ccc(CNC(=O)c2cc(NC(=O)c3cc(F)c(F)cc3Cl)[nH]n2)cn1 [Example 1-129] | < 100 | – | + | – | –
16 | O=C(NCc1c(Cl)cncc1Cl)c1cc(NC(=O)c2cc(F)c(F)cc2Cl)[nH]n1 [Example 1-135] | < 100 | + | – | – | –
17 | CCCN(Cc1ccc(Cl)nc1)C(=O)c1cc(NC(=O)c2cc(F)c(F)cc2Cl)[nH]n1 [Example 1-133] | < 100 | + | – | – | –
18 | CN(C(=O)c1cc(NC(=O)c2cc(F)c(F)cc2Cl)[nH]n1)C1CCCCC1 [Example 1-78] | < 100 | + | – | – | –

Row | SMILES | IC50 [1, 2] [nM] | vivo (hypoglycemic effect in db/db mice) (db/db mice) | vivo (hypoglycemic effect in db/db mice) (db/db mice; 10 mg/kg) | IC50 [1, 3] [nM] | vivo (hypoglycemic effect) (db/db mice)
19 | O=C(NCc1ccc(N2CCCCC2)nc1)c1cc(NC(=O)c2cc(F)c(F)cc2Cl)[nH]n1 [Example 5-24] | < 100 | ++ | – | – | –
20 | CN(C)C=Nc1ccc(CNC(=O)c2cc(NC(=O)c3cc(F)c(F)cc3Cl)[nH]n2)cc1.Cl [Example 6-23] | – | – | – | < 100 | +
21 | O=C(NCc1ccc(OCC(F)(F)F)nc1)c1cc(NC(=O)c2cc(F)c(F)cc2Cl)[nH]n1 [Example 1-39] | < 100 | + | – | – | –
22 | CC(C)Oc1ccc(CNC(=O)c2cc(NC(=O)c3cc(F)c(F)cc3Cl)[nH]n2)cn1 [Example 1-31] | < 100 | + | – | – | –
23 | COc1ccc(CN(CC2CC2)C(=O)c2cc(NC(=O)c3cc(F)c(F)cc3Cl)[nH]n2)cn1 [Example 1-128] | < 100 | + | – | – | –
24 | CCCN(Cc1c(Cl)cncc1Cl)C(=O)c1cc(NC(=O)c2cc(F)c(F)cc2Cl)[nH]n1 [Example 1-136] | < 100 | + | – | – | –
25 | COc1ncccc1CNC(=O)c1cc(NC(=O)c2cc(F)c(F)cc2Cl)[nH]n1 [Example 3-35] | < 100 | ++ | – | – | –
26 | CCN(C(=O)c1cc(NC(=O)c2cc(F)c(F)cc2Cl)[nH]n1)c1ccccc1 [Example 3-11] | < 100 | + | – | – | –
27 | CCCN(Cc1ccc(N(C)C)nc1)C(=O)c1cc(NC(=O)c2cc(F)c(F)cc2Cl)[nH]n1 [Example 1-130] | < 100 | + | – | – | –
28 | Cl.Nc1cccc(F)c1CNC(=O)c1cc(NC(=O)c2cc(F)c(F)cc2Cl)[nH]n1 [Example 6-39] | – | – | – | < 100 | +
29 | O=C(Nc1cc(C(=O)N(Cc2cccnc2)C2CCCCC2)n[nH]1)c1cc(F)c(F)cc1Cl [Example 1-91] | < 100 | + | – | – | –
30 | O=C(NCc1cccnc1Oc1ccccc1)c1cc(NC(=O)c2cc(F)c(F)cc2Cl)[nH]n1 [Example 1-25] | < 100 | + | – | – | –
31 | CN(C)C=Nc1cccc(CNC(=O)c2cc(NC(=O)c3cc(F)c(F)cc3Cl)[nH]n2)c1.Cl [Example 6-22] | – | – | – | < 100 | +
32 | CCCN(C(=O)c1cc(NC(=O)c2cc(F)c(F)cc2Cl)[nH]n1)C1CCN(C(=O)C(=O)O)CC1 [Example 1-123] | < 100 | + | – | – | –
33 | COCCN(C(=O)c1cc(NC(=O)c2cc(F)c(F)cc2Cl)[nH]n1)c1ccccc1 [Example 4-34] | < 100 | + | – | – | –
34 | CN(C(=O)c1cc(NC(=O)c2cc(F)c(F)cc2Cl)[nH]n1)c1ccccc1 [Example 3-4] | 100 to 300 | + | – | – | –
35 | CN(C(=O)c1cc(NC(=O)c2cc(F)c(F)cc2Cl)[nH]n1)c1ccc(-c2nc(=O)o[nH]2)cc1 [Example 6-12] | – | – | – | < 100 | +
